Source: patent US10849866B2, “Methods for inhibiting conversion of choline to trimethylamine (TMA)” (The Procter & Gamble Company, priority 2017, dated 2020)

Columns and labels:
[1] = test system: Proteus mirabilis 29906 (Pm) lysate; test: Inhibition of formation of TMA from choline in Proteus mirabilis lysate (Example 2); type: biochemical; conditions: Pm lysate 1.5 mg/mL protein, 50 μM d9-choline chloride, 37° C., two hours; read-out: TMA Inhibition (IC50, mol/L)
Description: Choline chloride (CC) (1M stock) was added to reach a final concentration of 2.5 mM choline chloride. The mixture was mixed using a vortex mixer for approximately 15 seconds and incubated at 37° C. for 22 hours. After incubation, 150 μL of CC-treated Pm lysate was dispensed into a deep-well plate (polypropylene, 2 mL volume, Corning Axygen catalogue # P-DW-20-C). […] The plates were agitated on a plate shaker for 1 minute. d9-choline chloride (1.5 μL of 5 mM) was added to all wells to reach a final d9-choline chloride concentration of 50 μM.
The plates were again agitated on a plate shaker for 1 minute and incubated at 37° C. for two hours. After incubation, 1.5 μL of formic acid was added to each well (final concentration=1% formic acid). The plates were agitated on a plate shaker for 1 minute and placed on ice. Cell lysate samples were spiked with stable isotope labeled internal standard (22.5 μL of 6 μg/mL of 13C3-trimethylamine (13C3-TMA) was added to each sample), then d9-trimethylamine (d9-TMA), trimethylamine (TMA) and 13C3-TMA were isolated from the lysate after protein precipitation as described below. […] The supernatant was removed and analyzed as described below. […] The concentrations of TMA and d9-TMA in the cell lysate were determined by interpolation from the quadratic (1/×2) regression curve.

[2] = target: T1, recombinant P. mirabilis Cut C/D lysate (Proteus mirabilis, UniProt B4EYG1); test: Inhibition of conversion of choline to TMA by recombinant P. mirabilis Cut C/D lysate (Example 5); type: biochemical
T1 sequence (B4EYG1 1-1142): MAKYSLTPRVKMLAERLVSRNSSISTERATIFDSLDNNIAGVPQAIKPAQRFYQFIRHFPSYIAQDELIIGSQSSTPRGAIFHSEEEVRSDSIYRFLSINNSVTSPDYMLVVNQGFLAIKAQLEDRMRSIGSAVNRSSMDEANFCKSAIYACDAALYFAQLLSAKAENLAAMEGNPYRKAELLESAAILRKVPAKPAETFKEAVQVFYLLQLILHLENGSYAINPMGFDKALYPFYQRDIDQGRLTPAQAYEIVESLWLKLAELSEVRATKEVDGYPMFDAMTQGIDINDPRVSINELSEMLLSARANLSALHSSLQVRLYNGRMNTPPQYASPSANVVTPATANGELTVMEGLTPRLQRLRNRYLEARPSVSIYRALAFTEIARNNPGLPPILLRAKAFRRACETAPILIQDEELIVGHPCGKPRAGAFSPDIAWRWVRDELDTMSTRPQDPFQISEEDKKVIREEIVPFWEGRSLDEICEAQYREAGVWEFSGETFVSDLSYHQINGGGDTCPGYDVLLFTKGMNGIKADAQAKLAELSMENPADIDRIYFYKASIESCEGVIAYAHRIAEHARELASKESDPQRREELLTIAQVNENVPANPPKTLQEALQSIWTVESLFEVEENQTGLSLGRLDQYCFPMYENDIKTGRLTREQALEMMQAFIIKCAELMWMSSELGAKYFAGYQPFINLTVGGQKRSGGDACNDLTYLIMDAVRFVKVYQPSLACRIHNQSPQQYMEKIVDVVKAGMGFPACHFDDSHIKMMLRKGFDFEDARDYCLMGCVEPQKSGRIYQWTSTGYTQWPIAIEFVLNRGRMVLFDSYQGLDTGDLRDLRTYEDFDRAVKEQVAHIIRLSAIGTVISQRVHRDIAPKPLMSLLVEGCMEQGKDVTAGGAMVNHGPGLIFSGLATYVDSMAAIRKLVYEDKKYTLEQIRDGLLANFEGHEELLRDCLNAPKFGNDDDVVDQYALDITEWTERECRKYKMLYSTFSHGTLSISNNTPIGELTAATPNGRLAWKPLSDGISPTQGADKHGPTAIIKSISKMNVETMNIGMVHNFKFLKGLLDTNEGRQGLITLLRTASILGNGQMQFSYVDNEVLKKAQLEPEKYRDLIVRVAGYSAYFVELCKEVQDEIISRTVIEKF
T1 sequence (B4EYG0 1-316 partner): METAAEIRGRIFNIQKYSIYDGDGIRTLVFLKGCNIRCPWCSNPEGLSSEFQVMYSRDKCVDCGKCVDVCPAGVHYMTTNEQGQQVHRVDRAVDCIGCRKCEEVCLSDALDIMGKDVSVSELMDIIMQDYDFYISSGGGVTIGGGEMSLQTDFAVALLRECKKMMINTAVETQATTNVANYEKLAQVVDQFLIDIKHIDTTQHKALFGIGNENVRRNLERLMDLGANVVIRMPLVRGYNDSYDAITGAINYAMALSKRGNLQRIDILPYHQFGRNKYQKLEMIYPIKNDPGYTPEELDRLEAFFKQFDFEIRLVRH
Description: (§1) Briefly, efficacy was measured as IC50 (nM) by inhibition of conversion of choline to TMA metabolized by recombinant P. mirabilis Cut C/D lysate; recombinant D. alaskensis Cut C/D lysate, or whole cell wild-type P. mirabilis.

[3] = target: T2, recombinant D. alaskensis Cut C/D lysate (Oleidesulfovibrio alaskensis, UniProt Q30W70); test: Inhibition of conversion of choline to TMA by recombinant D. alaskensis Cut C/D lysate (Example 5); type: biochemical
T2 construct: made in house
T2 sequence (Q30W70 1-846): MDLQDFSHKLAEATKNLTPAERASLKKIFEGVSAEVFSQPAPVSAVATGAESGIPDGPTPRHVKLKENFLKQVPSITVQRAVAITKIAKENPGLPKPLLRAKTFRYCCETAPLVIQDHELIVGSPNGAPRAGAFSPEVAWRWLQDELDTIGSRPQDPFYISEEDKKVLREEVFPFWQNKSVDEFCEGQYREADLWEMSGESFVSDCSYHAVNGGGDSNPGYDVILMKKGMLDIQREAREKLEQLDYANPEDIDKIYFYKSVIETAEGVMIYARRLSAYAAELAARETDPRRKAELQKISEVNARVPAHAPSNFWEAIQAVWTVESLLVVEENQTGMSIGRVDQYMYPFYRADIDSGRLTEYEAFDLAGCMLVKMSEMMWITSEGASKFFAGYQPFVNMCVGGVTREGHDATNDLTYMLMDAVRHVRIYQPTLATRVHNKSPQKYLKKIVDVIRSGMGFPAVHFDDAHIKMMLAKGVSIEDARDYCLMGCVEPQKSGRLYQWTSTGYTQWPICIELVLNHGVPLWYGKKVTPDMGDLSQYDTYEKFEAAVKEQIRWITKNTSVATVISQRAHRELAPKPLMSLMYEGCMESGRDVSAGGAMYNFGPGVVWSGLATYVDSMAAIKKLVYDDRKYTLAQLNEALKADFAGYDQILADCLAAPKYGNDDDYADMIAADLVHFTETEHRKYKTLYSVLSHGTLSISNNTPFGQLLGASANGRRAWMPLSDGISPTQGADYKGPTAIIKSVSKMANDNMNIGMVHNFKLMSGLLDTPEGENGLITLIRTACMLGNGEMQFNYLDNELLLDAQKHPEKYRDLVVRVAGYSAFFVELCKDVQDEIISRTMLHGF
Description: as §1

[4] = test system: whole cell wild-type P. mirabilis; test: Inhibition of conversion of choline to TMA by whole cell wild-type P. mirabilis (Example 5); type: cell-based; conditions: Proteus mirabilis
Description: as §1

[5] = test system: conversion of choline to TMA; test: Rapid preclinical method: d9-choline challenge in mice (Example 6); type: in vivo, C57bl/6 female mice; conditions: oral gavage with 2 mg d9-Choline, plasma, Time 3 hr
Description: Challenge: C57bl/6 female mice (8 wk of age ˜20 g BW) were maintained in accordance with the NIH guidelines in a 12:12 hr light:dark cycle on normal chow diet were placed in a clean cage without food ˜1 hr prior to gavage. […] Food was returned after a 2 hr fast (1 hr after gavage administration). Blood (30 μL) was collected into a heparinized capillary tube at 2, 3 and 4 hours after gavage. Blood was kept at 4° C., then spun using a centrifuge (5 min in centrifuge designed to capillary tubes) to separate plasma and hematocrit within 4 hours after collection. Plasma samples were stored at −80° C. Concentration of d9 Choline, d9TMA and d9TMAO was measured by LC-MS/MS.
Flora Normalization: Twenty four hours post-gavage mice were placed in a clean cage and fecal material from conventional mice was spread in all the cages.

| SMILES | IC50 [1] [nM] | IC50 [2] [nM] | IC50 [3] [nM] | EC50 [4] [µM] | Calculated EC50 (mg/kg) compared to Vehicle Control [5] [mg/kg] |
| --- | --- | --- | --- | --- | --- |
| C[N+](C)(CCl)CCF [ID 1, N-(chloromethyl)-2-fluoro-N,N-dimethylethan-1-aminium chloride] | 270 | 690 | 760 | 8.7 | 3.10 |
| C[N+](C)(CI)CCF [ID 2, 2-fluoro-N-(iodomethyl)-N,N-dimethylethan-1-aminium chloride] | 179 | 240 | 150 | 67 | 15.40 |
